Data reported in PubChem BioAssay (NCI).
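Five concentrations, 48 hours, 96-well plates. TGI: concentration producing complete growth inhibition.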

What was measured:
Test in all cases: NCI tumour cell line growth inhibition, 48 h
786-0 renal = system: 786-0 renal
A498 renal = system: A498 renal
A549 NSCLC = system: A549 NSCLC
ACHN renal = system: ACHN renal
BT-549 breast = system: BT-549 breast
CAKI-1 renal = system: CAKI-1 renal
CCRF-CEM leukemia = system: CCRF-CEM leukemia
COLO 205 colon = system: COLO 205 colon
DU-145 prostate = system: DU-145 prostate
EKVX NSCLC = system: EKVX NSCLC
HCC-2998 colon = system: HCC-2998 colon
HCT-116 colon = system: HCT-116 colon
HCT-15 colon = system: HCT-15 colon
HL-60(TB) leukemia = system: HL-60(TB) leukemia
HOP-62 NSCLC = system: HOP-62 NSCLC
HOP-92 NSCLC = system: HOP-92 NSCLC
HT29 colon = system: HT29 colon
IGROV1 ovarian = system: IGROV1 ovarian
K-562 leukemia = system: K-562 leukemia
KM12 colon = system: KM12 colon
LOX IMVI melanoma = system: LOX IMVI melanoma
MALME-3M melanoma = system: MALME-3M melanoma
MCF7 breast = system: MCF7 breast
MDA-MB-231 breast = system: MDA-MB-231 breast
MDA-MB-435 = system: MDA-MB-435
MDA-N = system: MDA-N
MOLT-4 leukemia = system: MOLT-4 leukemia
NCI-H226 lung = system: NCI-H226 lung
NCI-H23 lung = system: NCI-H23 lung
NCI-H460 lung = system: NCI-H460 lung
NCI-H522 lung = system: NCI-H522 lung
NCI/ADR-RES ovarian = system: NCI/ADR-RES ovarian
OVCAR-3 ovarian = system: OVCAR-3 ovarian
OVCAR-4 ovarian = system: OVCAR-4 ovarian
OVCAR-5 ovarian = system: OVCAR-5 ovarian
OVCAR-8 ovarian = system: OVCAR-8 ovarian
PC-3 prostate = system: PC-3 prostate
RXF 393 renal = system: RXF 393 renal
SF-268 CNS = system: SF-268 CNS
SF-295 CNS = system: SF-295 CNS
SK-MEL-2 melanoma = system: SK-MEL-2 melanoma
SK-MEL-28 melanoma = system: SK-MEL-28 melanoma
SK-MEL-5 melanoma = system: SK-MEL-5 melanoma
SN12C renal = system: SN12C renal
SNB-19 CNS = system: SNB-19 CNS
SNB-75 CNS = system: SNB-75 CNS
SR leukemia = system: SR leukemia
SW-620 colon = system: SW-620 colon
T-47D breast = system: T-47D breast
TK-10 renal = system: TK-10 renal
U251 CNS = system: U251 CNS
UACC-257 melanoma = system: UACC-257 melanoma
UACC-62 melanoma = system: UACC-62 melanoma
UO-31 renal = system: UO-31 renal
HS 578T breast = system: HS 578T breast
M14 melanoma = system: M14 melanoma
RPMI-8226 leukemia = system: RPMI-8226 leukemia
SF-539 CNS = system: SF-539 CNS
SK-OV-3 ovarian = system: SK-OV-3 ovarian

Molecule C=CCOc1ccc(C2C(C(=O)OC)C(=O)CC(O)(c3ccccc3)C2C(=O)OC)cc1OC (stereo not given) has a TGI (786-0 renal) of 39 µM, a TGI (A498 renal) of 76.4 µM and a TGI (A549 NSCLC) greater than 100 µM. For the same molecule, the TGI (ACHN renal) was greater than 100 µM, the TGI (BT-549 breast) was greater than 100 µM and the TGI (CAKI-1 renal) was greater than 100 µM. It also gave a TGI (CCRF-CEM leukemia) greater than 100 µM, a TGI (COLO 205 colon) greater than 100 µM and a TGI (DU-145 prostate) greater than 100 µM. The TGI (EKVX NSCLC) was greater than 100 µM, the TGI (HCC-2998 colon) was greater than 100 µM and the TGI (HCT-116 colon) was 49.8 µM. It also gave a TGI (HCT-15 colon) greater than 100 µM, a TGI (HL-60(TB) leukemia) greater than 100 µM and a TGI (HOP-62 NSCLC) greater than 100 µM. The TGI (HOP-92 NSCLC) was 38.5 µM, the TGI (HT29 colon) was greater than 100 µM and the TGI (IGROV1 ovarian) was greater than 100 µM. It also gave a TGI (K-562 leukemia) greater than 100 µM, a TGI (KM12 colon) greater than 100 µM and a TGI (LOX IMVI melanoma) greater than 100 µM. The TGI (MALME-3M melanoma) was greater than 100 µM, the TGI (MCF7 breast) was 61.3 µM and the TGI (MDA-MB-231 breast) was 38.2 µM. For the same molecule, the TGI (MDA-MB-435) was greater than 100 µM, the TGI (MDA-N) was greater than 100 µM and the TGI (MOLT-4 leukemia) was greater than 100 µM. The TGI (NCI-H226 lung) was 60.3 µM, the TGI (NCI-H23 lung) was greater than 100 µM and the TGI (NCI-H460 lung) was greater than 100 µM. It also gave a TGI (NCI-H522 lung) of 50.5 µM, a TGI (NCI/ADR-RES ovarian) of 66 µM and a TGI (OVCAR-3 ovarian) greater than 100 µM. The TGI (OVCAR-4 ovarian) was 69.5 µM, the TGI (OVCAR-5 ovarian) was greater than 100 µM and the TGI (OVCAR-8 ovarian) was 50.4 µM. It also gave a TGI (PC-3 prostate) greater than 100 µM, a TGI (RXF 393 renal) of 37.2 µM and a TGI (SF-268 CNS) of 52.7 µM. The TGI (SF-295 CNS) was greater than 100 µM, the TGI (SK-MEL-2 melanoma) was greater than 100 µM and the TGI (SK-MEL-28 melanoma) was greater than 100 µM. For the same molecule, the TGI (SK-MEL-5 melanoma) was greater than 100 µM, the TGI (SN12C renal) was greater than 100 µM and the TGI (SNB-19 CNS) was greater than 100 µM. It also gave a TGI (SNB-75 CNS) of 98.3 µM, a TGI (SR leukemia) greater than 100 µM and a TGI (SW-620 colon) greater than 100 µM. It also gave a TGI (T-47D breast) of 46.9 µM, a TGI (TK-10 renal) greater than 100 µM and a TGI (U251 CNS) greater than 100 µM. It also gave a TGI (UACC-257 melanoma) greater than 100 µM, a TGI (UACC-62 melanoma) greater than 100 µM and a TGI (UO-31 renal) of 61.8 µM.
For C1CSCCSCCCSCCSCCCSCCSCCCSCCSC1, the TGI (786-0 renal) was greater than 100 µM, the TGI (A498 renal) was greater than 100 µM and the TGI (A549 NSCLC) was greater than 100 µM. It also gave a TGI (ACHN renal) greater than 100 µM, a TGI (BT-549 breast) greater than 100 µM and a TGI (CAKI-1 renal) greater than 100 µM. The TGI (CCRF-CEM leukemia) was greater than 100 µM, the TGI (COLO 205 colon) was greater than 100 µM and the TGI (DU-145 prostate) was greater than 100 µM. It also gave a TGI (EKVX NSCLC) greater than 100 µM, a TGI (HCC-2998 colon) greater than 100 µM and a TGI (HCT-116 colon) greater than 100 µM. It also gave a TGI (HCT-15 colon) greater than 100 µM, a TGI (HL-60(TB) leukemia) greater than 100 µM and a TGI (HOP-62 NSCLC) greater than 100 µM. For the same molecule, the TGI (HOP-92 NSCLC) was greater than 100 µM, the TGI (HS 578T breast) was greater than 100 µM and the TGI (HT29 colon) was greater than 100 µM. For the same molecule, the TGI (IGROV1 ovarian) was greater than 100 µM, the TGI (K-562 leukemia) was greater than 100 µM and the TGI (KM12 colon) was greater than 100 µM. The TGI (LOX IMVI melanoma) was greater than 100 µM, the TGI (M14 melanoma) was greater than 100 µM and the TGI (MALME-3M melanoma) was greater than 100 µM. For the same molecule, the TGI (MCF7 breast) was greater than 100 µM, the TGI (MDA-MB-435) was greater than 100 µM and the TGI (MDA-N) was greater than 100 µM. For the same molecule, the TGI (MOLT-4 leukemia) was greater than 100 µM, the TGI (NCI-H226 lung) was greater than 100 µM and the TGI (NCI-H23 lung) was greater than 100 µM. For the same molecule, the TGI (NCI-H460 lung) was greater than 100 µM, the TGI (NCI-H522 lung) was greater than 100 µM and the TGI (NCI/ADR-RES ovarian) was greater than 100 µM. For the same molecule, the TGI (OVCAR-3 ovarian) was greater than 100 µM, the TGI (OVCAR-4 ovarian) was greater than 100 µM and the TGI (OVCAR-5 ovarian) was greater than 100 µM. The TGI (OVCAR-8 ovarian) was greater than 100 µM, the TGI (PC-3 prostate) was greater than 100 µM and the TGI (RPMI-8226 leukemia) was greater than 100 µM. For the same molecule, the TGI (RXF 393 renal) was greater than 100 µM, the TGI (SF-268 CNS) was greater than 100 µM and the TGI (SF-295 CNS) was greater than 100 µM. For the same molecule, the TGI (SF-539 CNS) was greater than 100 µM, the TGI (SK-MEL-2 melanoma) was greater than 100 µM and the TGI (SK-MEL-28 melanoma) was greater than 100 µM. For the same molecule, the TGI (SK-MEL-5 melanoma) was greater than 100 µM, the TGI (SK-OV-3 ovarian) was greater than 100 µM and the TGI (SN12C renal) was greater than 100 µM. For the same molecule, the TGI (SNB-19 CNS) was greater than 100 µM, the TGI (SR leukemia) was greater than 100 µM and the TGI (SW-620 colon) was greater than 100 µM. The TGI (T-47D breast) was greater than 100 µM, the TGI (TK-10 renal) was greater than 100 µM and the TGI (U251 CNS) was greater than 100 µM. The TGI (UACC-257 melanoma) was greater than 100 µM and the TGI (UO-31 renal) was greater than 100 µM.
